Experiments:
IRAK4 = biological target: T1, IRAK4 (Homo sapiens, UniProt Q9NWZ3); assay: RBC HotSpot kinase inhibition assay, IRAK4; type: biochemical; conditions: isolated kinase, 33P-ATP, 2 h
T1 sequence (Q9NWZ3 1-460): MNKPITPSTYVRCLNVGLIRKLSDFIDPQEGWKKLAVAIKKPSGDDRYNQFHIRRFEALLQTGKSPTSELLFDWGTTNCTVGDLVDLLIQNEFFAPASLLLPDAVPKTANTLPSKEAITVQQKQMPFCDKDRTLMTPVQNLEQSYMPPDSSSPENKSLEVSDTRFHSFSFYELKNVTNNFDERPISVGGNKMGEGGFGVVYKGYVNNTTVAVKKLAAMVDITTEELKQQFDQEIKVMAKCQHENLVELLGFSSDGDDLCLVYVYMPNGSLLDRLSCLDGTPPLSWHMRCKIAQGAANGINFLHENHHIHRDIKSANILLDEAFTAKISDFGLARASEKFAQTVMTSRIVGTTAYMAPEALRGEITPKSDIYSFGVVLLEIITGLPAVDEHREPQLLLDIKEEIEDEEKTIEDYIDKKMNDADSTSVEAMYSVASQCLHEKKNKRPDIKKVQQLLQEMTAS
From the text: (§1) This assay uses the isolated kinase enzyme. This assay is very useful for determining competition of the inhibitor for ATP and/or substrates and for measuring the kinetics of enzyme inhibition. […] Unlike kinase binding assays that measure competition for ATP, the HotSpot Kinase Assay is a functional assay that measures catalytic activity; as such it measures relative functional potency regardless of the mechanism of enzyme inhibition. This assay uses the form of the various enzymes that are easiest to express, which may not necessarily be the form of the enzyme that exist in the cell. (Sometimes the carboxy terminus has been truncated to aid in expression, or, if it is a receptor kinase, the enzyme itself is isolated from the other parts of the receptor that are involved in regulating kinase activity.)
(§2) The reagent used was as follows: Base Reaction buffer; 20 mM Hepes (pH 7.5), 10 mM MgCl2, 1 mM EGTA, 0.01% Brij35, 0.02 mg/ml BSA, 0.1 mM Na3VO4, 2 mM DTT, 1% DMSO. Required cofactors were added individually to each kinase reaction.
(§3) The reaction procedure was as follows: • 1) Substrates were prepared in freshly prepared Reaction Buffer. • 2) Any required cofactors were delivered to the substrate solution above. • 3) Kinase was delivered into the substrate solution and gently mixed. • 4) Compounds were delivered in 100% DMSO into the kinase reaction mixture by Acoustic technology (Echo550; nanoliter range), followed by incubation for 20 min at room temp. • 5) ^33P-ATP was delivered into the reaction mixture to initiate the reaction. • 6) The mixture was incubated for 2 hours at room temperature. • 7) Kinase activity was detected by P81 filter-binding method.
as §1, with “Although not wishing to be limited by theory, it is believed that sometimes” for “(Sometimes”, “activity.” for “activity.)”
(§4) The reagent used was as follows: Base Reaction buffer; 20 mM Hepes (pH 7.5), 10 mM MgCl2, 1 mM EGTA, 0.01% Brij35, 0.02 mg/ml BSA, 0.1 mM Na3 VO4, 2 mM DTT, 1% DMSO.
(§5) Required cofactors were added individually to each kinase reaction.
as §3, with “33P-ATP” for “^33P-ATP”

FLT3 = biological target: T2, FLT3 (Homo sapiens, UniProt P36888); assay: RBC HotSpot kinase inhibition assay, FLT3; type: biochemical; conditions: isolated kinase, 33P-ATP, 2 h
T2 sequence (P36888 27-993): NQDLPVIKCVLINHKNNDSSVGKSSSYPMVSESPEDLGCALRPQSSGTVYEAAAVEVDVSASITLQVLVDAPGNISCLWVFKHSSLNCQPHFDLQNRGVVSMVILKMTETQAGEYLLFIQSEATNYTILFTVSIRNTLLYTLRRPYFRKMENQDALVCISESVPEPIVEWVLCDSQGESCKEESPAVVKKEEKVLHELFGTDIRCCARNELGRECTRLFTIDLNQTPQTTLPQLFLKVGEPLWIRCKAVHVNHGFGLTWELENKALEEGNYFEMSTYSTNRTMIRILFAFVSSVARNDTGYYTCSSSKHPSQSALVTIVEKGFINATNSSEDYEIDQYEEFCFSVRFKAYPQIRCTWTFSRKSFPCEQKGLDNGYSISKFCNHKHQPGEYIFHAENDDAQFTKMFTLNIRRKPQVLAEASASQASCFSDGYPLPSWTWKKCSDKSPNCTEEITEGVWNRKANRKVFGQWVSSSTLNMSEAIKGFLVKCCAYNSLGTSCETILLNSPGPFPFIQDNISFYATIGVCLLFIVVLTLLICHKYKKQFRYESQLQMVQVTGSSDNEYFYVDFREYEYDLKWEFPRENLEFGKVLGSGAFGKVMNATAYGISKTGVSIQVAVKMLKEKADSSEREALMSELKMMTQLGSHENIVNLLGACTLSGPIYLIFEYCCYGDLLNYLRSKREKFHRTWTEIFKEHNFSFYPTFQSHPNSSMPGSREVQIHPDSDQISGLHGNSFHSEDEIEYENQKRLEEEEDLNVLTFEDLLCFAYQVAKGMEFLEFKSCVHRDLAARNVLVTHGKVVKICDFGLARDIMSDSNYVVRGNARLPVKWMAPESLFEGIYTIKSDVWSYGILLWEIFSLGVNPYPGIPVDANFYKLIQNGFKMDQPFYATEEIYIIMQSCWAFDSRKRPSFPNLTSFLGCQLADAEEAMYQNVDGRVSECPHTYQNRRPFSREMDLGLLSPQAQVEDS
From the text: as §1, §2, §3
as §1, with “Although not wishing to be limited by theory, it is believed that sometimes” for “(Sometimes”, “activity.” for “activity.)”
as §4, §5
as §3, with “33P-ATP” for “^33P-ATP”

An IC50 (IRAK4; Table 11) of under 0.5 nM and an IC50 (FLT3; Table 11) of under 0.5 nM were found for `COc1cn2ncc(-c3nc(N[C@@H]4CCCNC4)ccc3F)c2nc1C1CC1` [Compound 2, (R)-6-(5-cyclopropyl-6-methoxypyrazolo[1,5-a]pyrimidin-3-yl)-5-fluoro-N-(piperidin-3-yl)pyridin-2-amine] in this work.

An IC50 (IRAK4; Table 11) of under 0.5 nM and an IC50 (FLT3; Table 11) of under 0.5 nM were found for `COc1cn2ncc(-c3nc(N[C@H]4CNCC[C@@H]4F)ccc3F)c2nc1C1CC1` [Compound 3, 6-(5-cyclopropyl-6-methoxypyrazolo[1,5-a]pyrimidin-3-yl)-5-fluoro-N-((3S,4S)-4-fluoropiperidin-3-yl)pyridin-2-amine] in this work.

An IC50 (IRAK4; Table 17) of 15 nM and an IC50 (FLT3; Table 17) of 0.7 nM were found for `COc1cn2ncc(-c3ccnc(N[C@H]4CNCC[C@@H]4F)n3)c2nc1C(C)(C)O` [Compound 3a, 2-(3-(2-(((3S,4S)-4-fluoropiperidin-3-yl)amino)pyrimidin-4-yl)-6-methoxypyrazolo[1,5-a]pyrimidin-5-yl)propan-2-ol] in this work.

An IC50 (IRAK4; Table 17) of 2 nM and an IC50 (FLT3; Table 17) of under 0.5 nM were found for `COc1cn2ncc(-c3nc(N[C@@H]4CCCNC4)ncc3F)c2nc1C(C)(C)O` [Compound 4a, (R)-2-(3-(5-fluoro-2-(piperidin-3-ylamino)pyrimidin-4-yl)-6-methoxypyrazolo[1,5-a]pyrimidin-5-yl)propan-2-ol] in this work.

An IC50 (IRAK4; Table 11) of 3 nM and an IC50 (FLT3; Table 11) of under 0.5 nM were found for `COc1cn2ncc(-c3ccc(F)c(N[C@@H]4CCCNC4)n3)c2nc1C1CC1` [Compound 5, (R)-6-(5-cyclopropyl-6-methoxypyrazolo[1,5-a]pyrimidin-3-yl)-3-fluoro-N-(piperidin-3-yl)pyridin-2-amine] in this work.

An IC50 (IRAK4; Table 17) of 0.7 nM and an IC50 (FLT3; Table 17) of under 0.5 nM were found for `COc1cn2ncc(-c3nc(N[C@H]4CNC[C@@H]4F)ncc3F)c2nc1C(C)(C)O` [Compound 5a, 2-(3-(5-fluoro-2-(((3S,4S)-4-fluoropyrrolidin-3-yl)amino)pyrimidin-4-yl)-6-methoxypyrazolo[1,5-a]pyrimidin-5-yl)propan-2-ol] in this work.

An IC50 (IRAK4; Table 11) of 0.6 nM and an IC50 (FLT3; Table 11) of under 0.5 nM were found for `COc1cn2ncc(-c3ccc(F)c(N[C@H]4CNCC[C@@H]4F)n3)c2nc1C1CC1` [Compound 6, 6-(5-cyclopropyl-6-methoxypyrazolo[1,5-a]pyrimidin-3-yl)-3-fluoro-N-((3S,4S)-4-fluoropiperidin-3-yl)pyridin-2-amine] in this work.

An IC50 (IRAK4; Table 17) of 0.7 nM and an IC50 (FLT3; Table 17) of under 0.5 nM were found for `COc1cn2ncc(-c3nc(N[C@H]4CNCC[C@@H]4F)ncc3F)c2nc1C(C)(C)O` [Compound 6a, 2-(3-(5-fluoro-2-(((3S,4S)-4-fluoropiperidin-3-yl)amino)pyrimidin-4-yl)-6-methoxypyrazolo[1,5-a]pyrimidin-5-yl)propan-2-ol] in this work.

An IC50 (IRAK4; Table 11) of under 0.5 nM and an IC50 (FLT3; Table 11) of under 0.5 nM were found for `COc1cn2ncc(-c3nc(N[C@H]4CNCC[C@@H]4F)c(C#N)cc3F)c2nc1C1CC1` [Compound 7, 6-(5-cyclopropyl-6-methoxypyrazolo[1,5-a]pyrimidin-3-yl)-5-fluoro-2-(((3S,4S)-4-fluoropiperidin-3-yl)amino)nicotinonitrile] in this work.

An IC50 (IRAK4; Table 17) of 1 nM and an IC50 (FLT3; Table 17) of under 0.5 nM were found for `COc1cn2ncc(-c3ccnc(N[C@H]4CNCC[C@@H]4F)n3)c2nc1C1CC1` [Compound 7a, 4-(5-cyclopropyl-6-methoxypyrazolo[1,5-a]pyrimidin-3-yl)-N-((3S,4S)-4-fluoropiperidin-3-yl)pyrimidin-2-amine] in this work.

An IC50 (IRAK4; Table 17) of 1 nM and an IC50 (FLT3; Table 17) of under 0.5 nM were found for `COc1cn2ncc(-c3ccnc(N[C@H]4CNC[C@@H]4F)n3)c2nc1C1CC1` [Compound 8a, 4-(5-cyclopropyl-6-methoxypyrazolo[1,5-a]pyrimidin-3-yl)-N-((3S,4S)-4-fluoropyrrolidin-3-yl)pyrimidin-2-amine] in this work.

An IC50 (IRAK4; Table 11) of under 0.5 nM and an IC50 (FLT3; Table 11) of under 0.5 nM were found for `COc1cn2ncc(-c3nc(N[C@@H]4CCCNC4)c(C#N)cc3F)c2nc1C(C)(C)O` [Compound 9, (R)-5-fluoro-6-(5-(2-hydroxypropan-2-yl)-6-methoxypyrazolo[1,5-a]pyrimidin-3-yl)-2-(piperidin-3-ylamino)nicotinonitrile] in this work.

An IC50 (IRAK4; Table 11) of under 0.5 nM and an IC50 (FLT3; Table 11) of under 0.5 nM were found for `COc1cn2ncc(-c3nc(N[C@H]4CNCC[C@@H]4F)c(C#N)cc3F)c2nc1C(C)(C)O` [Compound 10, 5-fluoro-2-(((3S,4S)-4-fluoropiperidin-3-yl)amino)-6-(5-(2-hydroxypropan-2-yl)-6-methoxypyrazolo[1,5-a]pyrimidin-3-yl)nicotinonitrile] in this work.

An IC50 (IRAK4; Table 11) of 1 nM and an IC50 (FLT3; Table 11) of under 0.5 nM were found for `COc1cn2ncc(-c3nc(N[C@@H]4CCCNC4)c(F)cc3F)c2nc1C(C)(C)O` [Compound 11, (R)-2-(3-(3,5-difluoro-6-(piperidin-3-ylamino)pyridin-2-yl)-6-methoxypyrazolo[1,5-a]pyrimidin-5-yl)propan-2-ol] in this work.

An IC50 (IRAK4; Table 17) of 1 nM and an IC50 (FLT3; Table 17) of under 0.5 nM were found for `COc1cn2ncc(-c3cncc(N[C@@H]4CCCNC4)n3)c2nc1C1CC1` [Compound 11a, (R)-6-(5-cyclopropyl-6-methoxypyrazolo[1,5-a]pyrimidin-3-yl)-N-(piperidin-3-yl)pyrazin-2-amine] in this work.

An IC50 (IRAK4; Table 11) of under 0.5 nM and an IC50 (FLT3; Table 11) of under 0.5 nM were found for `COc1cn2ncc(-c3nc(N[C@H]4CNC[C@@H]4F)c(F)cc3F)c2nc1C(C)(C)O` [Compound 12, 2-(3-(3,5-difluoro-6-(((3S,4S)-4-fluoropyrrolidin-3-yl)amino)pyridin-2-yl)-6-methoxypyrazolo[1,5-a]pyrimidin-5-yl)propan-2-ol] in this work.

An IC50 (IRAK4; Table 17) of 0.8 nM and an IC50 (FLT3; Table 17) of under 0.5 nM were found for `COc1cn2ncc(-c3cncc(N[C@H]4CNCC[C@@H]4F)n3)c2nc1C1CC1` [Compound 12a, 6-(5-cyclopropyl-6-methoxypyrazolo[1,5-a]pyrimidin-3-yl)-N-((3S,4S)-4-fluoropiperidin-3-yl)pyrazin-2-amine] in this work.

An IC50 (IRAK4; Table 11) of 2 nM and an IC50 (FLT3; Table 11) of under 0.5 nM were found for `COc1cn2ncc(-c3nc(N[C@H]4CNCC[C@@H]4F)c(F)cc3F)c2nc1C(C)(C)O` [Compound 13, 2-(3-(3,5-difluoro-6-(((3S,4S)-4-fluoropiperidin-3-yl)amino)pyridin-2-yl)-6-methoxypyrazolo[1,5-a]pyrimidin-5-yl)propan-2-ol] in this work.
